Columns and labels:
[1] = Cytotoxicity, ATP-Lite, Fa2N-4 immortalized human hepatocytes; type: cell-based; conditions: Fa2N-4 immortalized human hepatocytes
Experimental: Fa2N-4 immortalized human hepatocytes (Xenotech) or HREC cells were grown to subconfluency in wells of a 96-well plate and exposed to different concentrations of compounds for 24 h after which the cells were washed and the media and compounds replaced. The cells were returned to the incubator for another 24 h. The extent of cell death (cell lysis) was determined by ATP-Lite reagent (Perkin-Elmer).

[2] = Plasma-protein binding, human; type: in vitro ADME
[3] = Plasma-protein binding, mouse; type: in vitro ADME
[4] = Plasma-protein binding, rat; type: in vitro ADME
Plasma stability, human = type: in vitro ADME
Plasma stability, mouse = type: in vitro ADME
[5] = Hepatic microsome stability, mouse; type: in vitro ADME; conditions: liver microsomes, pH 7.4, single phase, read-out: Hepatic microsome stability T1/2
Experimental: Hepatic microsomes stability assays were performed as reported before. […] After preincubation at 37°C for 10 min, enzyme reactions were initiated by adding 120 μL of NADPH-generating system (2 mM NADP^+, 10 mM glucose-6-phosphate, 0.4 U/ml glucose-6-phosphate dehydrogenase, and 5 mM MgCl2) in the presence of 100 mM potassium phosphate buffer (pH 7.4). The final concentration of each model compound used was 1 μM. The microsomal concentrations used were 1.0 mg/mL. Compounds were incubated in microsomes for 0, 5, 15, 30 and 60 min. The reactions were stopped by the addition of ice cold ACN and the reaction mixtures were centrifuged at 10,000g for 10 min before the supernatant was removed for analysis.
Except for the primary assay in the HTS campaign, all experiments were repeated at least three times. Results are expressed as mean ± SEM. The Mann-Whitney test was used to determine statistical significance of the densitometry data of Western blot analysis. Unpaired two-tailed Student’s t-test was performed for the significance of the results of ELISA and in vitro tubule formation assay. ANOVA was used to determine the significance in vivo CNV models using the Tukey post-hoc test for multiple comparisons. […] T1/2 was calculated using the best fit curve resulting from non-linear (human) or linear (mouse and rat) regression analyses using Prism 7.

[6] = Tissue distribution in the mouse eye after intravitreal injection; type: in vivo; conditions: 7 d after IVT administration
Experimental: Mice were assigned to groups (n = 6/group) that received either 50 μg compound, or vehicle via intravitreal injection (1 μl volume). One day after injection, ½ of the mice (n = 3 / group) mice were euthanized. The eyes were enucleated and the vitreous humor, retina, and RPE/Choroid/sclera were isolated and snap frozen in liquid N2. The remaining mice in each treatment group (n = 3 / group) were euthanized and the same tissues collected. The quantity of compound in the tissues (n = 6 eyes / treatment group) was measured using LC-MS/MS.

APJ [7] = molecular target: T1, APJ (Homo sapiens, UniProt P35414); assay: Radioligand competition binding assay, [125I]-Glp65, Nle75, Tyr77-Ap13 on APJ membranes; set-up: purchased Perkin Elmer; conditions: tested as high as 100 μM
T1 sequence (P35414 1-380): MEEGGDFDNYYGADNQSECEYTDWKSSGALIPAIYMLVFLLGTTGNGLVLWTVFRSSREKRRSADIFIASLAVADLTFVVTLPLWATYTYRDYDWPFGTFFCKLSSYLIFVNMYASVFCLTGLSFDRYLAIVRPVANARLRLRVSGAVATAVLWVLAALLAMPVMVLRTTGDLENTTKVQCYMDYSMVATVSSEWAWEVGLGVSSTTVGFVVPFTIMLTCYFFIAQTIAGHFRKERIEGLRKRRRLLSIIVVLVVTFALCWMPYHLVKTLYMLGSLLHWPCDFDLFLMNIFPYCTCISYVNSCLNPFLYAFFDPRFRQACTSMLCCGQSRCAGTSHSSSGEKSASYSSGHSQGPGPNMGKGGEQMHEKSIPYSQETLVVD
Experimental: Soaking buffer (300 μl/well) was added to a 96-well GF/C filter plate (MultiScreen Harvest plate, Millipore) and left to equilibrate at room temperature for 3 h. […] Following incubation, contents were transferred from the OptiPlate to the pre-wet GF/C filter plate, and immediately underwent vacuum filtration. The filter plate was washed five times with 200 μl ice cold wash buffer and left at room temperature overnight to equilibrate. The next day, 20 μl scintillation liquid (Microscint 20, Perkin Elmer) was added and radioactivity quantified using a TopCount NXT (Perkin Elmer) microplate scintillation and luminescence counter. […] The Cheng & Prusoff equation was used to convert IC50 estimates to equilibrium dissociation constants [89].

APJ [8] = molecular target: T1, APJ; assay: APJ β-arrestin recruitment assay (PathHunter, CHO-K1-APJ); type: cell-based; set-up: β-galactosidase enzyme fragment (enzyme fragment complementation construct); host or cells: CHO-K1 (CHO-K1-APJ, PathHunter)
Experimental: PathHunter™ GPCR Arrestin and cAMP Hunter™ cell lines (DiscoveRx Corp., Fremont, CA) were used to assay G-protein-dependent signaling and β-arrestin recruitment to APJ. CHO-K1 cells stably expressing APJ (CHO-K1-APJ) or AT1 (CHO-K1-AT1) with β-arrestin/β-galactosidase enzyme fragment complementation constructs were maintained in HAM's F-12 medium (Hyclone, Logan, UT) supplemented with 10% FBS, 1X Penicillin-Streptomycin-Glutamine (Invitrogen; Carlsbad, CA), 300 μg/ml hygromycin (EMD Biosciences, San Diego, CA), and 800 μg/ml Geneticin (Cellgro, Manassas, VA). Primary Human Retinal Microvascular Endothelial Cells (HRECs) were purchased from Cell Systems (Kirkland, WA) and maintained in Complete Classic Medium with CultureBoost-R™ (Cell Systems). Parent CHO-K1 cells were obtained from ATCC and maintained in HAM’s F-12 medium supplemented with 10% FBS, and1X Penicillin-Streptomycin-Glutamine (Invitrogen; Carlsbad, CA). All cells were incubated at 37°C (5% CO2, 95% relative humidity) and maintained at less than 70% to 80% confluence (approximately 75,000 cells/cm^2). Cell heterologously expressing APJ or AT1 were not used after 10 passages. HRECs were not used in any experiments after five passages.
CHO-K1 cells engineered to over-express APJ or AT1, and β-arrestin were removed from flasks using TrypLE Select (1X), no phenol red (Life Technologies, Grand Island, NY), centrifuged, and resuspended in CP2 Reagent (DiscoveRx, Fremont, CA). Cells were counted using a Countess Automated Cell Counter (Invitrogen, Carlsbad, CA) and 5,000 cells/well were plated in a 384-well tissue culture treated microplate (Corning, Corning, NY). All plates were incubated overnight at 37°C, 5% CO2 in a final volume of 25 μl/well. Following incubation, 5 μl of peptides (10-point concentrations) and controls prepared in ligand buffer (1X HBSS, 10 mM HEPES, 0.1% BSA) were added to cells and incubated at 37°C for 1.5 h. Using a Multidrop Combi Reagent Dispenser (Thermo Scientific), 12 μl of Detection Reagent (DiscoveRx) comprised of substrate and co-factors was added to all wells and incubated at room temperature in the dark for 1 h. Chemiluminescent signal was detected on an EnVision Multi-label plate reader (Perkin Elmer) using a counting time of 1 s/well. The robustness of data from each screening plate and run was monitored by Z’ and Signal Window calculation.

## CCN(CC)Cc1cc(Nc2ccnc3cc(Cl)ccc23)ccc1O [AQ, amodiaquine]
[1]; ATP-lite assay, Fa2-N4 cells
  IC50 at 48 h: > 50 µM
[1]; Fa2N-4 cells, read-out: Cytotoxicity LC50
  CC50 at 48 h: > 50 µM
[2]; 1 μM
  Plasma-protein binding: 88.2 % bound
[2]; 10 μM
  Plasma-protein binding: 83.8 % bound
[3]; 1 μM
  Plasma-protein binding: 81.9 % bound
[3]; 10 μM
  Plasma-protein binding: 70.8 % bound
[4]; 1 μM
  Plasma-protein binding: 75.3 % bound
[4]; 10 μM
  Plasma-protein binding: 76.8 % bound
Plasma stability, human
  Plasma stability: 37.3 % remaining at 3 hrs
Plasma stability, mouse
  Plasma stability: 36.1 % remaining at 3 hrs
[5]
  half-life at 1 μM: 39.8 min
[6]
  AQ level in plasma: No detectable levels
APJ [7]
  Displacement of [125I]-Glp65, Nle75, Tyr7-Ap13 binding: did not displace
APJ [8]
  Antagonism of Ap13-mediated recruitment of β-arrestin: neither AQ nor 1, 3, 4, 5, or 6 antagonized
APJ [8]; secondary assay, Ap13-mediated β-arrestin recruitment
  IC50: > 99 µM
